30 compounds from US20100076015A1, “Aminopyridine Derivatives” (VANTIA LIMITED, priority 2008, published 2010) can be followed below.

Molecules are shown by their SMILES.

This assay has as its target T1, Human KLK1 (Homo sapiens, UniProt P06870).
T1 construct: purchased Callbiochem (Calbiochem)
Nature of the assay: Determination of the IC50 for KLK1 (fluorogenic substrate H-DVal-Leu-Arg-AFC). It is filed as biochemical. To be noted: 37° C. In outline:
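IC50 values reflect residual human KLK1 activity, read as initial rate from optical absorbance change at 410 nm. Incubations ran at 37° C with H-DVal-Leu-Arg-AFC as substrate across a compound concentration series.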

T1 sequence (P06870 25-262): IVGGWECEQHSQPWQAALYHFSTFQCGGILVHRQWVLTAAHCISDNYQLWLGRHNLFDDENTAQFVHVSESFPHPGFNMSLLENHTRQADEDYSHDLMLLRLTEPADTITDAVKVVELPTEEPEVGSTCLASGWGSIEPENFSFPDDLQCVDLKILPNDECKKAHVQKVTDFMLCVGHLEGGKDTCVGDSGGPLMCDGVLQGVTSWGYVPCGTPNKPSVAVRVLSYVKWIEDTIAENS

In turn, `Cc1nc(N)ccc1CNC(=O)[C@H](Cc1ccc(F)c(F)c1)NC(=O)[C@H]1CCCN1C` [Example 205, (R)-1-Methyl-pyrrolidine-2-carboxylic acid [(S)-1-[(6-amino-2-methyl-pyridin-3-ylmethyl)-carbamoyl]-2-(3,4-difluoro-phenyl)-ethyl]-amide] displayed an IC50 of 6.7 nM.

For `CC(C)CN(CC(=O)N[C@@H](Cc1ccc(F)c(F)c1)C(=O)NCc1ccc(N)nc1)CC(C)C` [Example 159, (S)—N-(6-Amino-pyridin-3-ylmethyl)-3-(3,4-difluoro-phenyl)-2-(2-diisobutylamino-acetylamino)-propionamide], the IC50 worked out at 165 nM. This IC50 is about 25-fold higher than that of the compound before.

The compound `CC(C)CN(C)CC(=O)N[C@@H](Cc1ccc(F)c(F)c1)C(=O)NCc1ccc(N)nc1` [Example 168, (S)—N-(6-Amino-pyridin-3-ylmethyl)-3-(3,4-difluoro-phenyl)-2-[2-(isobutyl-methyl-amino)-acetylamino]-propionamide] gave an IC50 of 291 nM. This IC50 is about 1.8-fold higher than that of the compound before.

As for `Cc1cccc(C[C@H](NC(=O)c2cc3ccccc3[nH]2)C(=O)NCc2ccc(N)nc2)c1` [Example 317, 1H-Indole-2-carboxylic acid {(S)-1-[(6-amino-pyridin-3-ylmethyl)-carbamoyl]-2-m-tolyl-ethyl}-amide], the IC50 was determined as 14.7 nM.

On to `CCC(C)[C@@H](N)C(=O)N[C@@H](CC1CCCC2CCCCC21)C(=O)NCc1c(C)cc(N)nc1C` (stereo partly drawn) [Example 208, (R)-2-Amino-3-methyl-pentanoic acid [(S)-1-[(6-amino-2,4-dimethyl-pyridin-3-ylmethyl)-carbamoyl]-2-(decahydro-naphthalen-1-yl)-ethyl]-amide], for which the half-inhibitory concentration (IC50) came out at 32.1 nM. Against the preceding compound, the IC50 is about 2.2-fold higher.

In turn, `COc1ccc2[nH]c(C(=O)N[C@@H](Cc3cccc(C)c3)C(=O)NCc3ccc(N)nc3)cc2c1` [Example 318, 5-Methoxy-1H-indole-2-carboxylic acid {(S)-1-[(6-amino-pyridin-3-ylmethyl)-carbamoyl]-2-m-tolyl-ethyl}-amide] gave an IC50 of 12.1 nM.

`CC(C(=O)N[C@@H](Cc1cccc(Cl)c1)C(=O)NCc1ccc(N)nc1)N1CCCCC1` (stereo partly drawn) [Example 411, N-[(S)-1-[(6-Amino-pyridin-3-ylmethyl)-carbamoyl]-2-(3-chloro-phenyl)-ethyl]-2-piperidin-1-yl-propionamide]: inhibition was half-maximal at 12.7 nM (IC50).

For the compound `Nc1ccc(CNC(=O)[C@H](Cc2ccc(F)cc2)NC(=O)c2cc3ccccc3[nH]2)cn1` [Example 330, 1H-Indole-2-carboxylic acid [(S)-1-[(6-amino-pyridin-3-ylmethyl)-carbamoyl]-2-(4-fluoro-phenyl)-ethyl]-amide], 23.6 nM corresponded to half-maximal inhibition (IC50).

With `COC(=O)c1ccc(C(=O)N[C@@H](Cc2cccc(C(F)(F)F)c2)C(=O)NCc2ccc(N)nc2)[nH]1` [Example 274, 5-[(S)-1-[(6-Amino-pyridin-3-ylmethyl)-carbamoyl]-2-(3-trifluoromethyl-phenyl)-ethylcarbamoyl]-1H-pyrrole-2-carboxylic acid methyl ester], the half-inhibitory concentration (IC50) is 4.8 nM.

`CC(C)C[C@@H](N)C(=O)N[C@@H](CC1CCCC2CCCCC21)C(=O)NCc1ccc(N)nc1` (stereo partly drawn) [Example 16, (R)-2-Amino-4-methyl-pentanoic acid [(S)-1-[(6-amino-pyridin-3-ylmethyl)-carbamoyl]-2-(decahydro-naphthalen-1-yl)-ethyl]-amide] showed an IC50 of 1.1 nM.

`Nc1ccc(CNC(=O)[C@H](Cc2ccc(F)c(F)c2)NC(=O)CN2CCOCC2)cn1` [Example 171, (S)—N-(6-Amino-pyridin-3-ylmethyl)-3-(3,4-difluoro-phenyl)-2-(2-morpholin-4-yl-acetylamino)-propionamide]: the IC50 worked out at 1.3 nM.

For `CC(C)N1CCC[C@@H]1C(=O)N[C@@H](Cc1ccccc1C(F)(F)F)C(=O)NCc1ccc(N)nc1` [Example 128, (R)-1-Isopropyl-pyrrolidine-2-carboxylic acid [(S)-1-[(6-amino-pyridin-3-ylmethyl)-carbamoyl]-2-(2-trifluoromethyl-phenyl)-ethyl]-amide], 7.6 nM corresponded to half-maximal inhibition (IC50).

Compound `Nc1ccc(CNC(=O)[C@H](Cc2cccc(C(F)(F)F)c2)NC(=O)[C@H](N)Cc2ccc(Cl)cc2)cn1` [Example 70, (R)-2-Amino-N-[(S)-1-[(6-amino-pyridin-3-ylmethyl)-carbamoyl]-2-(3-trifluoromethyl-phenyl)-ethyl]-3-(4-chloro-phenyl)-propionamide] showed a half-maximal inhibitory concentration (IC50) of 1.1 nM. Against the preceding compound, the IC50 is about 6.9-fold lower.

Turning to `CCN1CCC[C@@H]1C(=O)N[C@@H](Cc1cccc(C)c1)C(=O)NCc1ccc(N)nc1` [Example 137, (R)-1-Ethyl-pyrrolidine-2-carboxylic acid {(S)-1-[(6-amino-pyridin-3-ylmethyl)-carbamoyl]-2-m-tolyl-ethyl}-amide], the IC50 is 288 nM.

The compound `Cc1cc(C)c(C(=O)N[C@@H](Cc2ccccc2C(F)(F)F)C(=O)NCc2ccc(N)nc2C)[nH]1` [Example 282, 3,5-Dimethyl-1H-pyrrole-2-carboxylic acid [(S)-1-[(6-amino-2-methyl-pyridin-3-ylmethyl)-carbamoyl]-2-(2-trifluoromethyl-phenyl)-ethyl]-amide] registered a concentration for half-maximal inhibition (IC50) of 1.3 nM.

Regarding `Nc1ccc(CNC(=O)[C@H](Cc2ccc(F)cc2)NC(=O)c2ncc[nH]2)cn1` [Example 287, 1H-Imidazole-2-carboxylic acid [(S)-1-[(6-amino-pyridin-3-ylmethyl)-carbamoyl]-2-(4-fluoro-phenyl)-ethyl]-amide], the IC50 was 75.6 nM.

As to `CC(C)N(C)[C@H](C)C(=O)N[C@@H](Cc1ccc(Cl)c(Cl)c1)C(=O)NCc1ccc(N)nc1` [Example 151, (R)—N-[(S)-1-[(6-Amino-pyridin-3-ylmethyl)-carbamoyl]-2-(3,4-dichloro-phenyl)-ethyl]-2-(isopropyl-methyl-amino)-propionamide], the half-inhibitory concentration (IC50) stood at 17.7 nM.

`Nc1ccc(CNC(=O)[C@H](Cc2csc3ccccc23)NC(=O)c2cc3ccccc3[nH]2)cn1` [Example 335, 1H-Indole-2-carboxylic acid {(S)-1-[(6-amino-pyridin-3-ylmethyl)-carbamoyl]-2-benzo[b]thiophen-3-yl-ethyl}-amide] had an IC50 of 15.8 nM.

The compound `Cc1cc[nH]c1C(=O)N[C@@H](Cc1ccccc1F)C(=O)NCc1ccc(N)nc1` [Example 265, 3-Methyl-1H-pyrrole-2-carboxylic acid [(S)-1-[(6-amino-pyridin-3-ylmethyl)-carbamoyl]-2-(2-fluoro-phenyl)-ethyl]-amide] registered a half-maximal inhibitory concentration (IC50) of 21.6 nM.

`Nc1ccc(CNC(=O)[C@H](Cc2ccc(F)c(F)c2)NC(=O)[C@H]2CCCCN2)cn1` [Example 74, (R)-Piperidine-2-carboxylic acid [(S)-1-[(6-amino-pyridin-3-ylmethyl)-carbamoyl]-2-(3,4-difluoro-phenyl)-ethyl]-amide] registered an IC50 of 1.8 nM.

Compound `Nc1ccc(CNC(=O)[C@H](Cc2ccc(F)cc2)NC(=O)[C@H]2CCCCN2)cn1` [Example 73, (R)-Piperidine-2-carboxylic acid [(S)-1-[(6-amino-pyridin-3-ylmethyl)-carbamoyl]-2-(4-fluoro-phenyl)-ethyl]-amide] yielded a half-maximal inhibitory concentration (IC50) of 1.1 nM.

`CC(C)N(C)[C@H](C)C(=O)N[C@@H](Cc1ccc(F)cc1)C(=O)NCc1ccc(N)nc1` [Example 180, (R)—N-[(S)-1-[(6-Amino-pyridin-3-ylmethyl)-carbamoyl]-2-(4-fluoro-phenyl)-ethyl]-2-(isopropyl-methyl-amino)-propionamide] showed an IC50 of 7.9 nM.

The compound `COc1ccc2[nH]c(C(=O)N[C@@H](Cc3ccc(F)cc3)C(=O)NCc3ccc(N)nc3)cc2c1` [Example 332, 5-Methoxy-1H-indole-2-carboxylic acid [(S)-1-[(6-amino-pyridin-3-ylmethyl)-carbamoyl]-2-(4-fluoro-phenyl)-ethyl]-amide] returned an IC50 of 21.5 nM.

`Cc1nc(N)ccc1CNC(=O)[C@@H](Cc1ccc(Cl)c(Cl)c1)NC(=O)[C@H]1CCCN1` [Example 189, (R)-Pyrrolidine-2-carboxylic acid [(R)-1-[(6-amino-2-methyl-pyridin-3-ylmethyl)-carbamoyl]-2-(3,4-dichloro-phenyl)-ethyl]-amide] registered a 50% inhibitory concentration (IC50) of 4.2 nM.

`CC(C)N(C)[C@H](C)C(=O)N[C@@H](Cc1ccc(F)c(F)c1)C(=O)NCc1ccc(N)nc1` [Example 175, (R)—N-[(S)-1-[(6-Amino-pyridin-3-ylmethyl)-carbamoyl]-2-(3,4-difluoro-phenyl)-ethyl]-2-(isopropyl-methyl-amino)-propionamide] came in with a 50% inhibitory concentration (IC50) of 2 nM. Compared with the last compound, the IC50 is about 2.1-fold lower.

The compound `CN(C)[C@H](Cc1ccccc1)C(=O)N[C@@H](Cc1ccc(F)c(F)c1)C(=O)NCc1ccc(N)nc1` [Example 185, (R)—N-[(S)-1-[(6-Amino-pyridin-3-ylmethyl)-carbamoyl]-2-(3,4-difluoro-phenyl)-ethyl]-2-dimethylamino-3-phenyl-propionamide] had an IC50 of 14.5 nM.

`Nc1ccc(CNC(=O)[C@H](Cc2ccccc2Cl)NC(=O)[C@H]2CCCCN2)cn1` [Example 76, (R)-Piperidine-2-carboxylic acid [(S)-1-[(6-amino-pyridin-3-ylmethyl)-carbamoyl]-2-(2-chloro-phenyl)-ethyl]-amide] had a 50% inhibitory concentration (IC50) of 21.8 nM.

On to `CCCN(C)[C@@H](C)C(=O)N[C@@H](Cc1ccc(F)cc1)C(=O)NCc1ccc(N)nc1` [Example 368, (S)—N-[(S)-1-[(6-Amino-pyridin-3-ylmethyl)-carbamoyl]-2-(4-fluoro-phenyl)-ethyl]-2-(methyl-propyl-amino)-propionamide], for which the IC50 was 19.4 nM.

`Nc1ccc(CNC(=O)[C@H](Cc2ccc(Cl)c(Cl)c2)NC(=O)[C@@H](N)c2ccccc2)cn1` [Example 58, (S)-2-((S)-2-Amino-2-phenyl-acetylamino)-N-(6-amino-pyridin-3-ylmethyl)-3-(3,4-dichloro-phenyl)-propionamide] registered a 50% inhibitory concentration (IC50) of 48.6 nM. This IC50 lies about 2.5-fold higher than the previous one.

The compound `C[C@H](C(=O)N[C@@H](Cc1ccc(F)c(F)c1)C(=O)NCc1ccc(N)nc1)N1CCCC1` [Example 356, (R)—N-[(S)-1-[(6-Amino-pyridin-3-ylmethyl)-carbamoyl]-2-(3,4-difluoro-phenyl)-ethyl]-2-pyrrolidin-1-yl-propionamide] registered a concentration for half-maximal inhibition (IC50) of 3.8 nM. Compared with the last compound, the IC50 is about 13-fold lower.
